# Data from paper PMC4882497 (British Journal of Pharmacology, 2016).
# Tests used:
# WT (C57Bl/6NCrl) mice = assay: Cued fear extinction after peripheral injection, WT mice; type: in vivo, mouse
# Description: (§1) Naïve WT (C57Bl/6NCrl) or Y4KO mice were used for fear conditioning experiments. Fear conditioning experiments were conducted during the light phase of the light/dark cycle in sound proof chambers (TSE Systems, Bad Homburg, Germany) by repetitive exposure of the mice to an auditory stimulus co‐terminating with a foot shock, as described in detail previously (Verma et al., 2012). Fear conditioning and context testing were performed in context A consisting of a transparent acrylic mouse conditioning chamber with a metal grid floor. The whole set‐up was enclosed by a sound attenuating chamber. Illumination was 80 lux, and chambers were cleaned with 70% ethanol. Fear recall as well as fear extinction and extinction recall was performed in a different context consisting of a dimly illuminated (10 lux) chamber with black, smooth walls and the floor cleaned with 1% acetic acid (context B).
# (§2) On day 1 (context A), mice were subjected to a differential fear conditioning paradigm in which one auditory stimulus served as a CS because it was explicitly paired (CS+, 30 s white noise, 80 dB) with the US, whereas the second auditory stimulus was not paired (CS−, 30 s, 3.5 kHz, 80 dB). All animals received five CS− and five CS+ in an alternating order, starting with a CS+. The US co‐terminating with each CS+ consisted of a foot shock. […] On days 2 and 3, mice were tested for their context (context A for 15 min) and CS‐related fear memory (context B) respectively.
# (§3) Fear conditioning was performed in WT (C57Bl6/NCrl) and Y4KO mice on day 1 (context A) as described in the previous paragraph. To avoid interference with postprandial released PP, mice were fasted overnight (16 h) before injection of the drug followed by fear extinction training. Water was freely available during the fasting period. Based on our previous results, a 16 h fasting period was required to reach our experimental aim (Verma et al., 2016). A control experiment was performed without food restriction (non‐fasting). [K^30(PEG2)]hPP2‐36 (1 mg·kg^−1) or saline was injected i.p. 60 min before behavioural testing, as indicated in the timeline of the respective experiments. For extinction experiments, mice were divided into two groups, receiving an i.p. injection of either the long‐acting Y4 receptor agonist [K^30(PEG2)]hPP2‐36 (1 mg·kg^−1) or saline in controls followed after 60 min by extinction training (extinction 1; 5 CS− and 25 CS+, context B). Mice were then tested on day 3 for extinction recall under drug‐free conditions by exposure to five CS+ (context B). To exclude any bias of group selection, another extinction session was performed on day 4 (extinction 2; 25 CS+, context B) followed by extinction recall on day 5 (five CS+; context B), both under drug‐free conditions. Spontaneous recovery (day 12) and renewal (day 13) were tested by exposing the mice to five CS+ in contexts B and A respectively.
# [1] = tested on: orexin neurons in the lateral hypothalamus; assay: c-Fos/orexin dual-labelling immunohistochemistry in lateral hypothalamus after fear extinction, WT mice; type: in vivo, mouse; conditions: i.p. 60 min before fear extinction, fasted 16 h, brains removed 90 min after testing, n = 7 per group
# Description: A separate group of WT and Y4KO mice were fasted overnight (16 h), injected i.p. with [K^30(PEG2)]hPP2‐36 or saline and subjected to extinction training 60 min later. Using a cryostat 40 μm coronal, free‐floating sections were cut for subsequent immunohistochemistry.
# Immunohistochemical analysis was performed on free‐floating, PFA‐fixed, 40 μm thick coronal sections using indirect peroxidase labelling, as described previously (Tasan et al., 2011). The following antisera were used: polyclonal rabbit anti‐c‐Fos (1:20 000 PC38, Calbiochem) and polyclonal rabbit anti‐pan‐orexin (1:1000, Abcam ab6214, Lot:GR63996‐1). In brief, coronal sections were incubated free‐floating in 10% normal goat serum (Biomedica, Vienna, Austria) in Tris–HCl buffered saline (TBS; 50 mM, pH 7.2) for 90 min, followed by incubation with primary antiserum. […]
# The number of c‐Fos positive cells was obtained bilaterally from six matched sections per animal showing the lateral hypothalamus, at a magnification of 400×, in multiple separate fields and mean values were calculated for each mouse. Results are presented as number of immunoreactivity positive cells per section and expressed as mean ± SEM. […]
# Y4KO mice = assay: Cued fear extinction after peripheral injection, Y4KO mice; type: in vivo, mouse; conditions: 1 mg/kg i.p. 60 min before extinction, fasted 16 h, vs saline, n = 10 per group
# Description: as §1
# On day 1 (context A), mice were subjected to a differential fear conditioning paradigm in which one auditory stimulus served as a CS because it was explicitly paired (CS+, 30 s white noise, 80 dB) with the US, whereas the second auditory stimulus was not paired (CS−, 30 s, 3.5 kHz, 80 dB). All animals received five CS− and five CS+ in an alternating order, starting with a CS+. The US co‐terminating with each CS+ consisted of a foot shock. […]
# male WT mice = assay: Motor activity over 24 h in a novel cage; type: in vivo, mouse; conditions: 1 mg/kg i.p., 24 h in novel cage, vs saline, n = 8 vs 7
# Description: Male WT mice were injected i.p. with either the long‐acting Y4 receptor agonist [K^30(PEG2)]hPP2‐36 (1mg kg^−1) or saline. Activity measurements were performed for 24 h in a novel cage. Mice were single‐housed in standard cages with food and water ad libitum. Movements of the mice were detected by an infrared sensor throughout light and dark phase (TSE LabMaster InfraMot, Bad Homburg, Germany).
# To exclude non‐specific effects of [K^30(PEG2)]hPP2‐36 on motor activity that may compromise freezing detection during extinction training, we first injected male WT mice i.p. with [K^30(PEG2)]hPP2‐36 or saline and subsequently observed the activity of the mice for 24 h in a novel cage (Supporting Information Figure S4).
# WT mice = assay: Fear acquisition and consolidation after peripheral injection; type: in vivo, mouse; conditions: vs saline, n = 6 per group
# Description: as §1, §2
# as §3, with “Spontaneous recovery (day 12) and renewal (day 13) were tested by exposing the mice to five CS+ in contexts B and A respectively.” left out
# hY4 = biological target: T1, hY4 (Homo sapiens, UniProt P50391); assay: Inositol phosphate accumulation, COS-7 cells expressing hY4 and chimeric Gi/q protein; type: cell-based; conditions: agonist, inositol phosphate turnover, COS7 cells; pEC50 ± SEM, n ≥ 2
# T1 construct: expressed in transfected cells
# Description: (§4) Agonist activity at Y receptors was assessed by measuring inositol phosphate accumulation in COS‐7 cells, as described previously (Hofmann et al., 2013). […] Stably transfected COS‐7‐hYR‐GαΔ6qi4myr cells were cultivated in DMEM with 4.5 g·L^−1 glucose and L‐glutamine supplemented with 10% (v/v) heat‐inactivated FCS, 100 units mL^−1 penicillin, 100 μg mL^−1 streptomycin, 1.5 mg mL^−1 G418‐sulfate and 146 μg mL^−1 hygromycin B in a humidified atmosphere at 37°C and 5% CO2. COS 7 cells were a gift from Prof. Dr. Torsten Schöneberg (Leipzig University). Stable cell lines were prepared as described in Mäde et al., 2014. Cells were grown in 48‐well plates (90 000 cells in 500 μL per well) for 24 h. […] Cells were lysed applying 0.1 M sodium hydroxide for 5 min at room temperature followed by neutralization with 0.2 M formic acid. […] Eluates were diluted with scintillation cocktail Ultima Gold (Perkin Elmer) and measured by a scintillation counter (Tri‐Carb 2910 TR from PerkinElmer). […] For each compound, global mean EC50 and pEC50 ± SEM (n ≥ 2) were calculated from the entire normalized concentration‐response curves by nonlinear regression using GraphPad Prism 5.0. […]
# (§5) Activity at the human receptors, hY1, hY2, hY4 and hY5, was measured by accumulation of IP3, after channeling cAMP inhibition to phospholipase C activity, in COS7 cells.
# hY5 = biological target: T2, hY5 (Homo sapiens, UniProt Q15761); assay: Inositol phosphate accumulation, COS-7 cells expressing hY5 and chimeric Gi/q protein; type: cell-based; conditions: agonist, inositol phosphate turnover, COS7 cells; pEC50 ± SEM, n ≥ 2
# T2 construct: expressed in transfected cells
# T2 sequence (Q15761 1-445): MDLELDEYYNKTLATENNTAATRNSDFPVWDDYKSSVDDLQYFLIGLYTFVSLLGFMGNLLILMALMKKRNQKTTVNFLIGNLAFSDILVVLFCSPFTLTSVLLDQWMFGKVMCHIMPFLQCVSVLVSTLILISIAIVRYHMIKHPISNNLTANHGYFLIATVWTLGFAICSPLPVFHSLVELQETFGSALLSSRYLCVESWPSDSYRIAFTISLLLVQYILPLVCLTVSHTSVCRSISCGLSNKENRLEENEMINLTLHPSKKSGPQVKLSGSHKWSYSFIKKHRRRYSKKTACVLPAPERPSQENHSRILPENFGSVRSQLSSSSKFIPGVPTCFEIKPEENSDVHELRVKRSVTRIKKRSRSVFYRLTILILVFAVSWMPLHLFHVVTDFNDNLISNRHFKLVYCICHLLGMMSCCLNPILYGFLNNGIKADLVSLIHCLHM
# Description: as §4, §5
# hY1 = biological target: T3, hY1 (Homo sapiens, UniProt P25929); assay: Inositol phosphate accumulation, COS-7 cells expressing hY1 and chimeric Gi/q protein; type: cell-based; conditions: agonist, inositol phosphate turnover, COS7 cells, 1 h stimulation, duplicate, at least two experiments
# T3 construct: expressed in transfected cells
# T3 sequence (P25929 1-384): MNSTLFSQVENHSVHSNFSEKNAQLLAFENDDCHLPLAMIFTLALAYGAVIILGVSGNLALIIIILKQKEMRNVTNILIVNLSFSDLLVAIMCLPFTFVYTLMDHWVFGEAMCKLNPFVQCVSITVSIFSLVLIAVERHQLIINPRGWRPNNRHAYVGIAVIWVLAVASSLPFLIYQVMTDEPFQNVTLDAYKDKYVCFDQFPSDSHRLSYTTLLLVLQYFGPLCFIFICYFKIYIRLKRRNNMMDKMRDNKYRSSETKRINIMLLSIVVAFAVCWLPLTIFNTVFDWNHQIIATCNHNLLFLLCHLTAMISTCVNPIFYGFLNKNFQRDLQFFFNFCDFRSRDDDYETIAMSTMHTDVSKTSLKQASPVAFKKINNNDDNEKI
# Description: as §4, §5
# hY2 = biological target: T4, hY2 (Homo sapiens, UniProt P49146); assay: Inositol phosphate accumulation, COS-7 cells expressing hY2 and chimeric Gi/q protein; type: cell-based; conditions: agonist, inositol phosphate turnover, COS7 cells, 1 h stimulation, duplicate, at least two experiments
# T4 construct: expressed in transfected cells
# T4 sequence (P49146 1-381): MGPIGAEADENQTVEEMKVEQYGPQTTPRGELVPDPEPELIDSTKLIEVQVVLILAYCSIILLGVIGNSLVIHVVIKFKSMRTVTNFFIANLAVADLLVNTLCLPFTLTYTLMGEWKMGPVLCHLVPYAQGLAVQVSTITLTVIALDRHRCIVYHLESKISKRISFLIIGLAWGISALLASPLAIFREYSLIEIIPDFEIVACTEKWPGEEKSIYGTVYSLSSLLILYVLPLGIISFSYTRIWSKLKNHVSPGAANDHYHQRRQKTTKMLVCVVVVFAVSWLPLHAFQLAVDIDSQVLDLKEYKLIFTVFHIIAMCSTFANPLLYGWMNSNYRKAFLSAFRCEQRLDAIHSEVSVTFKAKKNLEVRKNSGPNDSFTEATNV
# Description: as §4, §5
# [2] = i.p. immediately after fear acquisition
# T1 sequence (P50391 whole entry): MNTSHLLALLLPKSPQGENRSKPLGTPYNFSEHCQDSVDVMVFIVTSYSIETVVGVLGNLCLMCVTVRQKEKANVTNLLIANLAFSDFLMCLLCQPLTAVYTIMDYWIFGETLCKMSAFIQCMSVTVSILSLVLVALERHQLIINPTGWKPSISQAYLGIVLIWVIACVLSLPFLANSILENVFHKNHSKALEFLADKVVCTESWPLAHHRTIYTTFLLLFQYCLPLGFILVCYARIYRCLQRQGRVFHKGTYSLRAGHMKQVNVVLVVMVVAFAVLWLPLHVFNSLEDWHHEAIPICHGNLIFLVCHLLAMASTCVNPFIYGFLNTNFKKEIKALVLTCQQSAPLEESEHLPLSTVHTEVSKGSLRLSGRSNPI
general motor activity (male WT mice),hY4 pEC50 (hY4),hY5 pEC50 (hY5),EC50 (hY1) [µM],EC50 (hY2) [µM],Substance,"cued fear extinction learning (freezing to CS) (WT (C57Bl/6NCrl) mice; 1 mg/kg i.p. 60 min before extinction training, fasted 16 h, male WT mice, vs saline)","freezing at CS13 during extinction (WT (C57Bl/6NCrl) mice; 1 mg/kg i.p. 60 min before extinction, fasted 16 h, WT mice, n = 10 per group)","freezing during extinction recall (WT (C57Bl/6NCrl) mice; 1 mg/kg i.p. before extinction 1, fasted 16 h, recall 24 h later drug-free and non-fasting, male WT mice, vs saline)","freezing during spontaneous recovery (WT (C57Bl/6NCrl) mice; 1 mg/kg i.p. before extinction training 1 (day 2), fasted 16 h, tested day 12, context B, male WT mice, n = 7 per group)","freezing during renewal (WT (C57Bl/6NCrl) mice; 1 mg/kg i.p. before extinction training 1 (day 2), fasted 16 h, tested day 13, context A, male WT mice, n = 7 per group)","cued fear extinction learning, non-fasted (WT (C57Bl/6NCrl) mice; i.p. 60 min before extinction training, non‐fasted WT mice, vs saline, n = 6 per group)",percentage of cFos-positive orexin neurons in the lateral hypothalamus [1],cued fear extinction (freezing to CS) (Y4KO mice),"context fear after injection before fear acquisition (WT mice; i.p. 60 min before fear acquisition, 16 h fasting, tested 24 h later)","CS-induced fear after injection before fear acquisition (WT mice; i.p. 60 min before fear acquisition, 16 h fasting, tested 48 h later)",CS-induced freezing after injection immediately after fear acquisition (consolidation) (WT mice; [2]),context fear after injection immediately after fear acquisition (consolidation) (WT mice; [2])
did not influence general motor activity,–,–,–,–,[K^30(PEG2)]hPP2‐36,significantly facilitated extinction learning,reduced freezing at CS13,reduction of freezing during extinction recall,reduced freezing,reduced freezing,did not facilitate extinction learning,specifically reduced,did not respond,did not alter,did not alter,did also not change,did also not change
–,8.0 ± 0.2,6.4 ± 0.1,> 1,> 1,[K^30(PEG2)]hPP2‐36 (H-PLEPVYPGDNATPEQMAQYAADLRRYINK(MeO‑PEG 2 kDa)LTRPRY-NH2) [lysine 30 carries 2000 Da MeO-PEG],–,–,–,–,–,–,–,–,–,–,–,–
